Measurements published in a melting point compilation (Tetko et al.; mined from patent text by program, amines drawn as free bases though some values may be those of a salt).

In the case of `NCc1ccc(C(=O)Nc2ccc(-n3nc(C(F)(F)F)cc3C(F)(F)F)cc2)c(Cl)c1`, the melting point is reported as 90 to 93 °C. For `N#Cc1ccc(C=O)c(-c2cccs2)c1`, the melting point was 114 °C. `CC(C)(C)c1cc(CCc2ccccc2NC(=O)NC2CCCCCCC2)cc(C(C)(C)C)c1O` gave a melting point of 174 to 176 °C. In the case of `COc1c(C=O)cc(Cl)c(Cl)c1OC`, the melting point is reported as 75 to 77 °C. In the case of `Cc1nc2ccccn2c(=O)c1CCN1CCC(c2coc3cc(F)ccc23)CC1`, the melting point is reported as 160 °C. `CCCCNC(=O)NS(=O)(=O)Cc1c(C(=O)OC)cccc1[N+](=O)[O-]` gave a melting point of 144 to 150 °C. Compound `Cc1cc2c(cc1O)C(C)(C)CCC2(C)C` has a melting point of 122 to 123 °C. `Cc1oc(-c2cccc(-c3ccc(C(=O)O)cc3)c2)nc1CCOc1cccc(OC(C)(C)C(=O)O)c1` showed a melting point of 184 °C. With `NC(=O)C1(Nc2ccccc2)CCN(C2CCCc3ccccc32)CC1` (stereo unspecified) the melting point was 186 to 187 °C. `CC(=O)OC1CSC(Oc2cccc3conc23)C(OC(C)=O)C1OC(C)=O` (stereo unspecified) showed a melting point of 157 °C. In the case of `C/C(=C\c1ccc(C(=O)O)cc1)c1ccc(O)c(C(C)(C)C)c1`, the melting point is reported as 209 °C. For `O=C(O)CCCCCCCNS(=O)(=O)c1ccc(F)cc1`, the melting point was 97 to 98 °C. Compound `CC(CS)C(=O)Nc1cncc(C(=O)O)c1` (stereo unspecified) has a melting point of 160 to 165 °C. For `CCc1c2s[nH]c(=O)c2c(=O)n2ccc(N3CCC(N(C)C)C3)cc12` (stereo unspecified), the melting point was 217 to 219 °C. Compound `CCOP(=O)(CC(=O)Nc1c(C(C)C)cccc1C(C)C)OCC` has a melting point of 119 to 120 °C. With `COC=NS(=O)(=O)c1cc(C(C)C)c(C#N)cc1C(C)C` the melting point was 130 to 132 °C. With `CC1=Nc2cc(Cl)c(S)cc2S(=O)(=O)N1` the melting point was 304 to 305 °C. Work on `Cc1ccc(COc2ccccc2C=C2CCCCC2N2CCC2)cc1` (stereo unspecified) yielded a melting point of 88 to 90 °C. For `CCOC(=O)CCCNc1ccccc1-c1ccccc1`, the melting point was 60 to 62 °C. `COc1cc(-c2nc3ccccc3n2Cc2ccc(Cl)cc2)cc(OC)c1OC` showed a melting point of 169 °C. For `CC1CCN(c2ccc(N)cc2C(O)c2ccc(Cl)cc2)CC1` (stereo unspecified), the melting point was 89 °C. For `CS(=O)(=O)NS(=O)(=O)c1ccc(CCCl)cc1`, the melting point was 149 to 151 °C. `CNC(=O)c1cccc(CN2CCN(c3nc(C)c(-c4cc(C)n[nH]4)s3)C2=O)c1` gave a melting point of 259 to 261 °C. `CCNc1nc(C(C)(C)C)nn1-c1c(Cl)cc(C(F)(F)F)cc1Cl` gave a melting point of 67 to 70 °C. `CCOC(=O)c1c([N+](=O)[O-])c(-c2cccc([N+](=O)[O-])c2)[nH]c(=O)c1C(=O)OCC` showed a melting point of 188 to 190 °C. With `Cc1[nH]nc(Oc2ccc(C(F)(F)F)cc2[N+](=O)[O-])c1C` the melting point was 92 to 95 °C. In the case of `CS(=O)(=O)c1ccc(-c2cc(Cl)ccc2OCC(=O)O)cc1Cl`, the melting point is reported as 140 to 142 °C. With `O=C(CN1c2nc(-c3ccncc3)cc(=O)n2CCC12CC2)c1ccccc1` the melting point was 232 to 234 °C. Work on `CNS(=O)(=O)c1cccc(-c2cnc3[nH]cc(C(=O)C(C)(C)C)c3n2)c1` yielded a melting point of 245 to 247 °C. `Cc1c(=O)n(Cc2ccccc2)c(=O)n2cc(C(=O)NCc3ccccc3)sc12` gave a melting point of 176 to 178 °C. `COC(=O)[C@H](c1ccccc1Cl)N1CCc2sc(OC(=O)c3ccccc3)cc2C1` gave a melting point of 84 to 86 °C. For `OC1COC(n2c(Cl)nc3cc(Cl)c(Cl)cc32)C(O)C1O` (stereo unspecified), the melting point was 184 °C. With `CCN(C(=O)OC)c1c(C(=O)c2cnoc2C2CC2)ccc(S(C)(=O)=O)c1Cl` the melting point was 128 to 131 °C. With `COc1ccc(-c2ccc(C(C)C=O)cc2F)cc1` (stereo unspecified) the melting point was 55 to 59 °C. `COc1ccc2c(=O)cc(-c3ccc(F)cc3)oc2c1` gave a melting point of 162 °C. With `CCC(CC(=O)NC(=O)OC(C)(C)C)Nc1ccccc1` (stereo unspecified) the melting point was 105 to 106 °C. Compound `Clc1nc(Cl)c2c(n1)CCC2` has a melting point of 77 to 79 °C. With `CCOC(=O)C(Cc1ccc(C#N)cc1)(NC(C)=O)C(=O)OCC` the melting point was 160 to 163 °C. In the case of `O=C(O)Cn1ccc(=O)n(Cc2cccc([N+](=O)[O-])c2)c1=O`, the melting point is reported as 161 to 162 °C. With `Cc1cc(C(=O)O)ccc1C1=CC(C)(C)CC(C)(C)C1` the melting point was 118 to 120 °C. Work on `COc1cc(-n2nc(Cl)cc2-c2ccc(S(C)(=O)=O)cc2)ccc1[N+](=O)[O-]` yielded a melting point of 170 to 175 °C. In the case of `CCOC(=O)C=C(C)Nc1ccc(OC)c(OC)c1`, the melting point is reported as 57 to 58 °C. With `CO[C@@H]1CN(CCCn2nc(Cl)ccc2=O)CC[C@@H]1NC(=O)c1cc(Cl)c(N)c2c1OCCC2` (relative stereo) the melting point was 150 °C. Work on `Nc1ccccc1NCC12CC3CC(CC(C3)C1)C2` yielded a melting point of 101 to 104 °C. Compound `Clc1cc(Oc2ccc3ncccc3c2)ncn1` has a melting point of 136 to 137 °C. Work on `Nc1ccc(C=C2NC(=O)NC2=O)cc1` yielded a melting point of 300 °C. In the case of `O=C(c1ccc(OC[C@H](O)CO)cc1)c1ccc([N+](=O)[O-])cc1`, the melting point is reported as 104 to 105 °C. `Cc1cccc(Nc2ccccc2C(=O)N(C)O)c1C` gave a melting point of 70 to 71 °C. With `CCCCS(=O)(=O)N(CCN(CC)CC)c1ccc(C(Cl)=C(c2ccccc2)c2ccccc2)cc1` the melting point was 65 to 70 °C. Compound `COc1ccc2cc(C=O)oc2c1` has a melting point of 75 to 77 °C. `O=C(Nc1nc2ccccc2s1)Nc1cccc2c1C1CCCCN1C2=O` (stereo unspecified) showed a melting point of 260 °C. `O=[N+]([O-])C=C1NCCCCN1` showed a melting point of 152 to 154 °C. `C#CCN(c1nnc(C)c2ccccc12)c1nc2ccccc2n1-c1ccccc1` gave a melting point of 50 to 53 °C. In the case of `CCOC(=O)c1c(CC(=O)O)n(-c2ccc(OC(F)(F)F)cc2)c2ccc(Oc3ncccc3C(N)=O)cc12`, the melting point is reported as 128 to 130 °C. Work on `COc1ccc(-c2nc(C)c(-c3cccnc3)[nH]2)cc1OC` yielded a melting point of 246 to 248 °C. Work on `COC(=O)c1snc(-c2ccc([N+](=O)[O-])cc2)c1C(=O)OC` yielded a melting point of 142 to 143 °C. Work on `c1cnc2scc(Nc3ccncc3)c2c1` yielded a melting point of 200 to 204 °C. `CC(O)c1ccc(-c2ccc(N)cc2)o1` (stereo unspecified) showed a melting point of 100 to 104 °C. Compound `COC(=O)C1=C(C)N(C)C(C)C(C(=O)OC)=C1c1ccc(C(F)(F)F)cc1` (stereo unspecified) has a melting point of 94 to 95 °C. With `Cc1ncccc1NC(=NC#N)NC(NC(=O)Cc1ccc(F)c(F)c1)C(C)(C)C` (stereo unspecified) the melting point was 58 to 60 °C. In the case of `CC(C)N1CC(c2nnc(Cc3ccc(F)cc3)o2)=C(O)C1=O`, the melting point is reported as 204 to 206 °C. `O=C(CCc1ccc(NC(=O)c2ccccc2)cc1)NO` showed a melting point of 189 to 191 °C. `CON1CCC(=Cc2cc(C(C)(C)C)c(O)c(C(C)(C)C)c2)C1=O` showed a melting point of 169 °C. `CCN(C(=O)CC(OC)(C(F)(F)F)C(F)(F)F)c1cn(-c2cccnc2)nc1C` showed a melting point of 83 to 86 °C. In the case of `CC(=O)Cc1ccc(O)cn1`, the melting point is reported as 119 to 120 °C. Work on `O=CN(O)C(CCO)CS(=O)(=O)c1ccc(-c2ccc(F)cc2)cc1` (stereo unspecified) yielded a melting point of 160 to 162 °C. In the case of `Nc1cccc(NC(=O)C(=O)N2CCC(Cc3ccc(F)cc3)CC2)c1`, the melting point is reported as 117 to 120 °C. Work on `COc1cc(C(=O)Nc2cccc3c2CCN(C)C3)cc(OC)c1OC` yielded a melting point of 143 °C. With `CC(=O)c1ccc(Nc2cccc(-c3cnc(N)nc3)c2)c([N+](=O)[O-])c1` the melting point was 233 to 236 °C. `c1cnc2c(c1)nnn2-c1ccncc1` showed a melting point of 196 to 198 °C. In the case of `O=C(CCn1ccnc1)N1c2ccccc2Sc2ccccc21`, the melting point is reported as 150 to 152 °C. `CC(=O)N1CCN(N=Cc2ccc(F)cc2)CC1` showed a melting point of 88 to 90 °C. For `O=C(O)C=CC(=O)c1cccc([N+](=O)[O-])c1`, the melting point was 199 to 201 °C. In the case of `COc1cc(C(C)=O)c(O)cc1OCCCCl`, the melting point is reported as 99 to 101 °C. For `CCOC(=O)C(=O)N(CCO)N=Cc1ccccc1`, the melting point was 96 to 98 °C. Work on `COc1ccc(-c2cc3c(n2-c2ccc(O)c(C(=O)O)c2)CCCC3)cc1` yielded a melting point of 219 to 221 °C. Work on `Cc1c(N2CC(F)C(C3(N)CCC3)C2)c(F)c(N)c2c(=O)c(C(=O)O)cn(C3CC3F)c12` (stereo unspecified) yielded a melting point of 177 to 184 °C. With `Cc1ncc([N+](=O)[O-])n1CCN1C(=O)c2ccccc2C1=O` the melting point was 177 °C. Compound `Cc1cc(N2CCC=C(C(N)=O)C2)c2cccc(-c3ccc(Cl)cc3Cl)c2n1` has a melting point of 230 to 232 °C. For `CCOC(=O)c1oc(Br)nc1C`, the melting point was 94.5 to 95.5 °C. In the case of `COC(=O)c1cc(NC2CCOCC2)nc(Cl)n1`, the melting point is reported as 190 to 192 °C. Work on `CN(C)CCN(C(=O)N(C)C)c1ccc(N)cn1` yielded a melting point of 118 to 119 °C. Work on `CCCOc1ccc(OC)c(-c2csc(NC(=O)c3ccc(OCC(OCC)OCC)cc3)n2)c1` yielded a melting point of 107 °C. Compound `CN(C)CCCc1ccc(S(=O)(=O)N2CCC(Nc3nc(N)c(C(=O)c4c(F)cccc4F)s3)CC2)cc1` has a melting point of 117 to 120 °C. `CC(C)C[C@H](NC(=O)[C@H](Cc1c[nH]cn1)NC(=O)[C@H](Cc1cccc2ccccc12)NC(=O)OCc1ccccc1)[C@@H](O)CC=O` showed a melting point of 166 to 168 °C. Compound `Cc1c(-c2ccnc(-c3ccc4c(n3)CCCC4)n2)ccc2ccccc12` has a melting point of 156 to 158 °C. Compound `O=C(O)CC(c1ccc(OCc2ccc3ccccc3n2)cc1)c1ccc(OCc2ccc3ccccc3n2)cc1` has a melting point of 94 to 111 °C. In the case of `O=C(c1cccc(C(F)(F)F)c1)N(CCCCc1cccnc1)C1=Nc2cccc3cccc1c23`, the melting point is reported as 122 to 123 °C. Work on `OC1Cc2ccccc2Sc2cc(F)c(F)cc21` (stereo unspecified) yielded a melting point of 98 to 100 °C. `CCCn1cc(Cc2ccc(C(=O)O)cc2OC)c2cc(C=CCCC(=O)N(C)C)ccc21` showed a melting point of 151 to 153 °C. Compound `CC(=O)NCC(=O)c1cc(OC(C)=O)c(OC(C)=O)c([N+](=O)[O-])c1` has a melting point of 121 to 124 °C. For `COc1ccc(C(O)C(C)N)cc1OC` (stereo unspecified), the melting point was 131 to 132 °C. `c1ccc(N2CCN(CCc3nc4ccccc4[nH]3)CC2)cc1` showed a melting point of 201 to 203 °C. `O=C(NN1CCCCC1)NS(=O)(=O)c1ccc(CCN2C(=O)c3ccccc3C2(O)c2ccccc2)cc1` (stereo unspecified) gave a melting point of 228 °C. `COc1cccc(CNC(=O)c2nc3ccc(C#N)cc3c(=O)[nH]2)c1` showed a melting point of 206 to 208 °C. Compound `Nc1cccc(CCN2CCN(c3nsc4ccccc34)CC2)c1` has a melting point of 108 °C. In the case of `COP(=O)(COS(=O)(=O)c1c(C)cccc1Cl)OC`, the melting point is reported as 55 to 57.5 °C. Compound `O=[N+]([O-])c1ccc2c(ccn2-c2cccnc2)c1` has a melting point of 164 to 165 °C. Work on `N=C(N)Cc1ccccc1-n1cnc2cnc3ccc(-c4ccccc4)cc3c21` yielded a melting point of 261 to 263 °C. `CN(C)C(CC(F)C(=O)c1ccccc1)N1CCC(O)(c2ccc(Cl)cc2)CC1` (stereo unspecified) gave a melting point of 160 to 163 °C. `CC(=O)NC[C@H]1CN(c2cc(F)c(N3CCC(Cc4noc(-c5ccccc5)n4)CC3)c(F)c2)C(=O)O1` gave a melting point of 152 to 154 °C.
